Laboratory results taken from US12685749B2, “Multi-functional cleaning and/or debridement composition” (CORTICALIS AS, priority 2021, dated 2026).
Like-named read-outs stand apart in the source and are kept apart here.

Assays:
[1] = Text: Methylene blue (MB) is a heterocyclic aromatic chemical compound with molecular formula: C16H18N3SCl (SigmaAldrich, Oslo, Norway). It has many uses in a range of different fields, such as biology and chemistry. […] A degradation of MB therefore can be used as a model for the in vivo degradation of organic material, such as bacteria, or dead, damaged, and/or infected tissue. At room temperature, it appears as a solid, odourless, dark green powder, that yields a blue solution when dissolved in water. When degraded in solution, methylene blue becomes colourless.
When methylene blue is analysed by UV-vis spectrophotometry (Lambda 25, Perkin Elmer, USA), it absorbs light at […]. This machine was used to quantify the degradation of MB.
The aim was to measure if methylene blue could be degraded by H2O2(PERDROGEN® 30% H2O2 (v/v), Sigma Aldrich AS, Oslo, Norway) at 5% only, without ACP in a composite hydrogel formulation comprising poloxamers (Sigma Aldrich AS, Oslo, Norway) at a concentration of 5% w/v. Then, an increasing concentration of amorphous calcium phosphates ACP (by mixing two precursor components. Component A contained MB in a mixture of mono- and dibasic ammonium phosphate at pH 5.5.) was added to the solution until a maximum concentration of 8 g/L.
The measurements were taken every 3 minutes for one hour. The pH of the suspension containing MB was also registered. […]

[2] = pH of the suspension containing MB; assay type: physicochemical
[3] = system: Staphylococcus epidermidis biofilm; assay: Removal of biofilm from titanium disks, safranin staining; assay type: cell-based; settings: two minutes exposure
Text: Chemically pure (cp) titanium disks with a diameter of 6.2 mm and a height of 2 mm were used. […] After production, the disks were washed with NaOH at 40% v/v and HNO3 at 50% v/vin an ultrasonic bath to remove contaminants, then were washed with deionised water to reach a neutral pH and stored at room temperature in 70% v/v ethanol. Thereafter, the coins were placed in Eppendorf tube and steam autoclaved for sterilization.
Four chemical decontamination agents were selected for the in vitro testing: sterile saline H2O (VWR, Oslo, Norway), Chlorhexidine, 3% v/v H2O2(VWR, Oslo, Norway), a mixture of 3% v/v H2O2 and 2 g/L TiO2 (2 g nano-particles: P25 Aeroxide, Degussa Evonik, Evonik Industries AG, Essen, Germany).
15 sterile titanium disks per groups were inoculated. […] The amount of biofilm present on the surface of the titanium samples was assessed by using the safranin staining method: 10 min exposure to a 0.1% solution of safranin, then rinsed with distilled water, air dried, and exposed to a solution of 30% acetic acid to release the colored biomass from the titanium surfaces. The intensity of the staining was analyzed using a Synergy HT Multi-Detection Microplate Reader (Biotek, VT, USA) with a wavelength of 530 nm.

[4] = cited from earlier work

OO [H2O2, Hydrogen peroxide]
MB degradation ([1]; adding 5% v/v H2O2 to the ACP suspension): increased the MB degradation
MB degradation ([1]; increasing concentration of H2O2 in the ACP suspension): increased the MB degradation in a linear way
pH of the suspension ([2]; ACP suspension with MB, with H2O2 at 15% v/v): 3.3
pH of the suspension ([2]; H2O2 suspension with MB, without ACP): 3.7
biofilm removal with higher concentration [3]: increased the biofilm removal
effect on wound healing ([4]; 0.03% v/v solution, only if not applied repeatedly): may induce healing
effect on wound healing ([4]; 0.5% v/v solution): impede healing
